Results on 2 compounds are retold here after paper PMC3088120 (ACS medicinal chemistry letters, 2011).

The subject of assay [1] is E. coli and S. aureus DNA gyrase. The following applies: in vitro; cited from earlier work.
A further assay deals with E. coli DNA gyrase (Escherichia coli, UniProt P0AES4+P0AES6). As to the kind of experiment: in vitro dsDNA break. Format: biochemical. The following applies: 1 tested at ≤3.3 mM.
E. coli DNA gyrase, sequence (P0AES4 whole entry, one chain of several): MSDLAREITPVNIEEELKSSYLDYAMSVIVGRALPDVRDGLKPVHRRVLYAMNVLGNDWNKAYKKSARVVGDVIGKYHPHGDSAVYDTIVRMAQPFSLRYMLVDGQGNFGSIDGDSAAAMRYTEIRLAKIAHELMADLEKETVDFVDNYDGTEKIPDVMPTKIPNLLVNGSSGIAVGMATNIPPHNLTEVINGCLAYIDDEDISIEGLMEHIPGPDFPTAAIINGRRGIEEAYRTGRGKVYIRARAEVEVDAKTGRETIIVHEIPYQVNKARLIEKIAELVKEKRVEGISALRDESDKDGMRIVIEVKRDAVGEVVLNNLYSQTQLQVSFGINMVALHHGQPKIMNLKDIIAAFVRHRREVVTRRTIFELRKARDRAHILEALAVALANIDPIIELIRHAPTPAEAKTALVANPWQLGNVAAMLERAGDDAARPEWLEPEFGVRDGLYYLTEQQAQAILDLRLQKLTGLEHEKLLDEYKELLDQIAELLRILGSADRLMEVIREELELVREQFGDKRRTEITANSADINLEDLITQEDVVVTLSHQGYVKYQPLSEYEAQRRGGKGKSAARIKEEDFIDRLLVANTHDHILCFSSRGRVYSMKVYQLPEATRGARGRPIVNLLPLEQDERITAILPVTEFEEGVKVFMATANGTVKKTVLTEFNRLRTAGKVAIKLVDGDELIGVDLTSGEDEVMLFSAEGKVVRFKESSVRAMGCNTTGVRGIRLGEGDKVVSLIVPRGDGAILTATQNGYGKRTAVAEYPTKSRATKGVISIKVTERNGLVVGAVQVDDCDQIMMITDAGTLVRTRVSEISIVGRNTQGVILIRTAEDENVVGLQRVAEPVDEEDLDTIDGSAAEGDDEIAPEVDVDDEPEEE

Turning to `COc1ccc2ncc(F)c([C@@H](O)CC[C@@H]3CCN(CCSc4cccs4)C[C@@H]3C(=O)O)c2c1` [NXL101], in assay [1], the “release of dsDNA ends” value is given as “does not release dsDNA ends”. For `O=C(O)c1cn(C2CC2)c2cc(N3CCNCC3)c(F)cc2c1=O` [ciprofloxacin], the “generation of dsDNA breaks / linearized DNA” value on E. coli DNA gyrase is on record as “production of dsDNA breaks”.
